Measured values as given in the supplement of paper PMC9013687.

Assays:
Danio rerio embryo [1] = details: exposure time: 4 dpf
Procedure: (§1)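 Zebrafish embryos (UFZ-OBI strain) were exposed from 2 hpf for 48 h (2 dpf) or 96 h (4 dpf) at 28 °C; spontaneous tail coiling was scored at 25 hpf. Morphological features from automated image analysis (FishInspector), heart rate and locomotor response were fitted with drc models. Quantal endpoints were dichotomised at 2.5 SD from controls and fitted with a log-logistic model; heart rate, pigmentation and STC were normalised to the replicate control mean. Betamethasone was tested as betamethasone dipropionate, diflorasone as diflorasone diacetate.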

Danio rerio embryo [2] = system: Danio rerio embryo
Procedure: as §1

Danio rerio embryo [3] = details: exposure time: 4 dpf; remark: listed apart in the source
Procedure: as §1

Danio rerio embryo [4] = experiment: EC50 Eye size_Decrease; details: exposure time: 2 dpf
Procedure: as §1

Danio rerio embryo [5] = experiment: EC50 Curvature_Increase
Procedure: as §1

Danio rerio embryo [6] = experiment: EC50 Head size_Decrease; details: exposure time: 2 dpf
Procedure: as §1

Danio rerio embryo [7] = experiment: EC50 Body length_Decrease
Procedure: as §1

Danio rerio embryo [8] = experiment: EC50 Bladder size_Decrease; details: exposure time: 4 dpf
Procedure: as §1

Danio rerio embryo [9] = experiment: EC50 Pericard size_Increase; details: exposure time: 2 dpf
Procedure: as §1

Danio rerio embryo [10] = experiment: EC50 Yolk sac size_Increase
Procedure: as §1

Danio rerio embryo [11] = experiment: EC50 Head trunk angle_Decrease; details: exposure time: 2 dpf
Procedure: as §1

Danio rerio embryo [12] = experiment: EC50 Eye-jaw distance_Decrease; details: exposure time: 4 dpf
Procedure: as §1

Danio rerio embryo [13] = experiment: EC10 LMR dark; higher = less potent; details: exposure time: 4 dpf
Procedure: as §1

Danio rerio embryo [14] = experiment: EC20 LMR dark; higher = less potent; details: exposure time: 4 dpf
Procedure: as §1

Danio rerio embryo [15] = experiment: EC10 Lack of SB; higher = less potent; details: exposure time: 4 dpf
Procedure: as §1

Danio rerio embryo [16] = experiment: EC20 Lack of SB; higher = less potent; details: exposure time: 4 dpf
Procedure: as §1

Danio rerio embryo [17] = experiment: EC20 Any effect; higher = less potent
Procedure: as §1

Danio rerio embryo [18] = experiment: EC10 Any effect; higher = less potent
Procedure: as §1

Danio rerio embryo [19] = experiment: EC10 STC decrease; higher = less potent; details: exposure time: 25 h
Procedure: as §1

Danio rerio embryo [20] = experiment: EC20 STC decrease; higher = less potent; details: exposure time: 25 h
Procedure: as §1

Danio rerio embryo [21] = experiment: EC20 Eye size_Decrease; higher = less potent; details: exposure time: 2 dpf
Procedure: as §1

Danio rerio embryo [22] = experiment: EC10 Eye size_Decrease; higher = less potent; details: exposure time: 2 dpf
Procedure: as §1

Danio rerio embryo [23] = experiment: EC10 Curvature_Increase; higher = less potent
Procedure: as §1

Danio rerio embryo [24] = experiment: EC10 LMR ligth decrease; higher = less potent; details: exposure time: 4 dpf
Procedure: as §1

Danio rerio embryo [25] = experiment: EC20 Head size_Decrease; higher = less potent; details: exposure time: 2 dpf
Procedure: as §1

Danio rerio embryo [26] = experiment: EC20 LMR ligth decrease; higher = less potent; details: exposure time: 4 dpf
Procedure: as §1

Danio rerio embryo [27] = experiment: EC20 Curvature_Increase; higher = less potent
Procedure: as §1

Danio rerio embryo [28] = experiment: EC10 Head size_Decrease; higher = less potent; details: exposure time: 2 dpf
Procedure: as §1

Danio rerio embryo [29] = experiment: EC20 Body length_Decrease; higher = less potent
Procedure: as §1

Danio rerio embryo [30] = experiment: EC10 Body length_Decrease; higher = less potent
Procedure: as §1

Danio rerio embryo [31] = experiment: EC10 Bladder size_Decrease; higher = less potent; details: exposure time: 4 dpf
Procedure: as §1

Danio rerio embryo [32] = experiment: EC20 Bladder size_Decrease; higher = less potent; details: exposure time: 4 dpf
Procedure: as §1

Danio rerio embryo [33] = experiment: EC20 Yolk sac size_Increase; higher = less potent
Procedure: as §1

Danio rerio embryo [34] = experiment: EC20 Pericard size_Increase; higher = less potent; details: exposure time: 2 dpf
Procedure: as §1

Danio rerio embryo [35] = experiment: EC10 Yolk sac size_Increase; higher = less potent
Procedure: as §1

Danio rerio embryo [36] = experiment: EC10 Pericard size_Increase; higher = less potent; details: exposure time: 2 dpf
Procedure: as §1

Danio rerio embryo [37] = experiment: EC10 Head trunk angle_Decrease; higher = less potent; details: exposure time: 2 dpf
Procedure: as §1

Danio rerio embryo [38] = experiment: EC20 Eye-jaw distance_Decrease; higher = less potent; details: exposure time: 4 dpf
Procedure: as §1

Danio rerio embryo [39] = experiment: EC10 Eye-jaw distance_Decrease; higher = less potent; details: exposure time: 4 dpf
Procedure: as §1

Danio rerio embryo [40] = experiment: EC20 Head trunk angle_Decrease; higher = less potent; details: exposure time: 2 dpf
Procedure: as §1

Danio rerio embryo [41] = experiment: spontaneous tail coiling frequency (coils/min/embryo); higher = more spontaneous movement; details: 25 hpf
Procedure: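 Spontaneous tail coilings of zebrafish embryos exposed from 2 hpf were recorded at 24-25 hpf in 1-min videos and detected by a KNIME workflow from grey-value variance. Betamethasone was tested as the dipropionate, diflorasone as the diacetate.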

CC1=C(/C=C/C(C)=C/C=C/C(C)=C/C(=O)O)C(C)(C)CCC1 [all-trans retinoic acid]
Details	EC10 Bladder size Decrease [nM]	EC10 Eye size Decrease [nM]	EC10 Eye-jaw distance Decrease [nM]	EC10 Head size Decrease [nM]	EC10 Head trunk angle Decrease [nM]	EC10 LMR dark [nM]	EC10 LMR ligth decrease [nM]	EC10 Lack of SB [nM]	EC10 Pericard size Increase [nM]	EC10 STC decrease [nM]	EC20 Bladder size Decrease [nM]	EC20 Eye size Decrease [nM]	EC20 Eye-jaw distance Decrease [nM]	EC20 Head size Decrease [nM]	EC20 Head trunk angle Decrease [nM]	EC20 LMR dark [nM]	EC20 LMR ligth decrease [nM]	EC20 Lack of SB [nM]	EC20 Pericard size Increase [nM]	EC20 STC decrease [nM]	EC50 Bladder size Decrease [nM]	EC50 Eye size Decrease [nM]	EC50 Eye-jaw distance Decrease [nM]	EC50 Head size Decrease [nM]	EC50 Head trunk angle Decrease [nM]	EC50 LMR dark [nM]	EC50 Lack of SB [nM]	EC50 Pericard size Increase [nM]
Danio rerio embryo [1]	–	–	–	–	–	–	–	–	–	–	–	–	–	–	–	–	–	–	–	–	–	–	–	–	–	–	20	–
Danio rerio embryo [3]	–	–	–	–	–	–	–	–	–	–	–	–	–	–	–	–	–	–	–	–	–	–	–	–	–	36	–	–
Danio rerio embryo [4]	–	–	–	–	–	–	–	–	–	–	–	–	–	–	–	–	–	–	–	–	–	38	–	–	–	–	–	–
Danio rerio embryo [6]	–	–	–	–	–	–	–	–	–	–	–	–	–	–	–	–	–	–	–	–	–	–	–	42	–	–	–	–
Danio rerio embryo [8]	–	–	–	–	–	–	–	–	–	–	–	–	–	–	–	–	–	–	–	–	17	–	–	–	–	–	–	–
Danio rerio embryo [9]	–	–	–	–	–	–	–	–	–	–	–	–	–	–	–	–	–	–	–	–	–	–	–	–	–	–	–	39
Danio rerio embryo [11]	–	–	–	–	–	–	–	–	–	–	–	–	–	–	–	–	–	–	–	–	–	–	–	–	11	–	–	–
Danio rerio embryo [12]	–	–	–	–	–	–	–	–	–	–	–	–	–	–	–	–	–	–	–	–	–	–	33	–	–	–	–	–
Danio rerio embryo [13]	–	–	–	–	–	16	–	–	–	–	–	–	–	–	–	–	–	–	–	–	–	–	–	–	–	–	–	–
Danio rerio embryo [14]	–	–	–	–	–	–	–	–	–	–	–	–	–	–	–	22	–	–	–	–	–	–	–	–	–	–	–	–
Danio rerio embryo [15]	–	–	–	–	–	–	–	12	–	–	–	–	–	–	–	–	–	–	–	–	–	–	–	–	–	–	–	–
Danio rerio embryo [16]	–	–	–	–	–	–	–	–	–	–	–	–	–	–	–	–	–	15	–	–	–	–	–	–	–	–	–	–
Danio rerio embryo [19]	–	–	–	–	–	–	–	–	–	1.22	–	–	–	–	–	–	–	–	–	–	–	–	–	–	–	–	–	–
Danio rerio embryo [20]	–	–	–	–	–	–	–	–	–	–	–	–	–	–	–	–	–	–	–	5.6	–	–	–	–	–	–	–	–
Danio rerio embryo [21]	–	–	–	–	–	–	–	–	–	–	–	36	–	–	–	–	–	–	–	–	–	–	–	–	–	–	–	–
Danio rerio embryo [22]	–	34	–	–	–	–	–	–	–	–	–	–	–	–	–	–	–	–	–	–	–	–	–	–	–	–	–	–
Danio rerio embryo [24]	–	–	–	–	–	–	1.7	–	–	–	–	–	–	–	–	–	–	–	–	–	–	–	–	–	–	–	–	–
Danio rerio embryo [25]	–	–	–	–	–	–	–	–	–	–	–	–	–	26	–	–	–	–	–	–	–	–	–	–	–	–	–	–
Danio rerio embryo [26]	–	–	–	–	–	–	–	–	–	–	–	–	–	–	–	–	4.75	–	–	–	–	–	–	–	–	–	–	–
Danio rerio embryo [28]	–	–	–	19	–	–	–	–	–	–	–	–	–	–	–	–	–	–	–	–	–	–	–	–	–	–	–	–
Danio rerio embryo [31]	11	–	–	–	–	–	–	–	–	–	–	–	–	–	–	–	–	–	–	–	–	–	–	–	–	–	–	–
Danio rerio embryo [32]	–	–	–	–	–	–	–	–	–	–	12	–	–	–	–	–	–	–	–	–	–	–	–	–	–	–	–	–
Danio rerio embryo [34]	–	–	–	–	–	–	–	–	–	–	–	–	–	–	–	–	–	–	36	–	–	–	–	–	–	–	–	–
Danio rerio embryo [36]	–	–	–	–	–	–	–	–	35	–	–	–	–	–	–	–	–	–	–	–	–	–	–	–	–	–	–	–
Danio rerio embryo [37]	–	–	–	–	2	–	–	–	–	–	–	–	–	–	–	–	–	–	–	–	–	–	–	–	–	–	–	–
Danio rerio embryo [38]	–	–	–	–	–	–	–	–	–	–	–	–	28	–	–	–	–	–	–	–	–	–	–	–	–	–	–	–
Danio rerio embryo [39]	–	–	25	–	–	–	–	–	–	–	–	–	–	–	–	–	–	–	–	–	–	–	–	–	–	–	–	–
Danio rerio embryo [40]	–	–	–	–	–	–	–	–	–	–	–	–	–	–	4	–	–	–	–	–	–	–	–	–	–	–	–	–

Details	EC10 Any effect [nM]	EC10 Body length Decrease [nM]	EC10 Curvature Increase [nM]	EC10 Yolk sac size Increase [nM]	EC20 Any effect [nM]	EC20 Body length Decrease [nM]	EC20 Curvature Increase [nM]	EC20 Yolk sac size Increase [nM]	EC50 Any effect [nM]	EC50 Body length Decrease [nM]	EC50 Curvature Increase [nM]	EC50 LMR ligth decrease [nM]	EC50 STC decrease [nM]	EC50 Yolk sac size Increase [nM]	spontaneous tail coiling frequency
Danio rerio embryo [2], exposure time: 2 dpf	–	–	–	–	–	–	–	–	9	–	–	–	–	–	–
Danio rerio embryo [2], exposure time: 4 dpf	–	–	–	–	–	–	–	–	11	–	–	27.4	–	–	–
Danio rerio embryo [2], exposure time: 25 h	–	–	–	–	–	–	–	–	–	–	–	–	76	–	–
Danio rerio embryo [5], exposure time: 2 dpf	–	–	–	–	–	–	–	–	–	–	13	–	–	–	–
Danio rerio embryo [5], exposure time: 4 dpf	–	–	–	–	–	–	–	–	–	–	10	–	–	–	–
Danio rerio embryo [7], exposure time: 2 dpf	–	–	–	–	–	–	–	–	–	36	–	–	–	–	–
Danio rerio embryo [7], exposure time: 4 dpf	–	–	–	–	–	–	–	–	–	48	–	–	–	–	–
Danio rerio embryo [10], exposure time: 2 dpf	–	–	–	–	–	–	–	–	–	–	–	–	–	45	–
Danio rerio embryo [10], exposure time: 4 dpf	–	–	–	–	–	–	–	–	–	–	–	–	–	39	–
Danio rerio embryo [17], exposure time: 2 dpf	–	–	–	–	8	–	–	–	–	–	–	–	–	–	–
Danio rerio embryo [17], exposure time: 4 dpf	–	–	–	–	7	–	–	–	–	–	–	–	–	–	–
Danio rerio embryo [18], exposure time: 2 dpf	8	–	–	–	–	–	–	–	–	–	–	–	–	–	–
Danio rerio embryo [18], exposure time: 4 dpf	6	–	–	–	–	–	–	–	–	–	–	–	–	–	–
Danio rerio embryo [23], exposure time: 2 dpf	–	–	7	–	–	–	–	–	–	–	–	–	–	–	–
Danio rerio embryo [23], exposure time: 4 dpf	–	–	6	–	–	–	–	–	–	–	–	–	–	–	–
Danio rerio embryo [27], exposure time: 2 dpf	–	–	–	–	–	–	9	–	–	–	–	–	–	–	–
Danio rerio embryo [27], exposure time: 4 dpf	–	–	–	–	–	–	7	–	–	–	–	–	–	–	–
Danio rerio embryo [29], exposure time: 2 dpf	–	–	–	–	–	33	–	–	–	–	–	–	–	–	–
Danio rerio embryo [29], exposure time: 4 dpf	–	–	–	–	–	30	–	–	–	–	–	–	–	–	–
Danio rerio embryo [30], exposure time: 2 dpf	–	31	–	–	–	–	–	–	–	–	–	–	–	–	–
Danio rerio embryo [30], exposure time: 4 dpf	–	23	–	–	–	–	–	–	–	–	–	–	–	–	–
Danio rerio embryo [33], exposure time: 2 dpf	–	–	–	–	–	–	–	21	–	–	–	–	–	–	–
Danio rerio embryo [33], exposure time: 4 dpf	–	–	–	–	–	–	–	36	–	–	–	–	–	–	–
Danio rerio embryo [35], exposure time: 2 dpf	–	–	–	13	–	–	–	–	–	–	–	–	–	–	–
Danio rerio embryo [35], exposure time: 4 dpf	–	–	–	34	–	–	–	–	–	–	–	–	–	–	–
Danio rerio embryo [41], 1 µM	–	–	–	–	–	–	–	–	–	–	–	–	–	–	3.33
Danio rerio embryo [41], 6.25 µM	–	–	–	–	–	–	–	–	–	–	–	–	–	–	2.34
Danio rerio embryo [41], 12.5 µM	–	–	–	–	–	–	–	–	–	–	–	–	–	–	2.17
Danio rerio embryo [41], 25 µM	–	–	–	–	–	–	–	–	–	–	–	–	–	–	2.1
Danio rerio embryo [41], 50 µM	–	–	–	–	–	–	–	–	–	–	–	–	–	–	1.74
